Results as given in ChEMBL document CHEMBL1201862, “PubChem BioAssay data set” (2004).
The source made the active and inactive calls.

Tests used:
H4 = assay: Luminescence Cell-Based Dose Response HTS to Identify Activators of 5'UTR Stem-Loop Driven Prion Protein mRNA Translation in H4 Neuroglioblastoma Cells. [Related pubchem assays: 1829 (Project Summary), 1814 (Primary HTS)]; assay type: functional; conditions: Homo sapiens
[1] = Luminescence Cell-Based Dose Response HTS to Identify Activators of Luciferase Translation or Activity in H4 […] Cells. [Related pubchem assays: 1829 (Project Summary), 1814 (Primary HTS)]; assay type: functional
Cytochrome P450 2C9 = Cytochrome P450 2C9 (Homo sapiens, UniProt P11712)
Cytochrome P450 2C9, sequence (P11712 whole entry): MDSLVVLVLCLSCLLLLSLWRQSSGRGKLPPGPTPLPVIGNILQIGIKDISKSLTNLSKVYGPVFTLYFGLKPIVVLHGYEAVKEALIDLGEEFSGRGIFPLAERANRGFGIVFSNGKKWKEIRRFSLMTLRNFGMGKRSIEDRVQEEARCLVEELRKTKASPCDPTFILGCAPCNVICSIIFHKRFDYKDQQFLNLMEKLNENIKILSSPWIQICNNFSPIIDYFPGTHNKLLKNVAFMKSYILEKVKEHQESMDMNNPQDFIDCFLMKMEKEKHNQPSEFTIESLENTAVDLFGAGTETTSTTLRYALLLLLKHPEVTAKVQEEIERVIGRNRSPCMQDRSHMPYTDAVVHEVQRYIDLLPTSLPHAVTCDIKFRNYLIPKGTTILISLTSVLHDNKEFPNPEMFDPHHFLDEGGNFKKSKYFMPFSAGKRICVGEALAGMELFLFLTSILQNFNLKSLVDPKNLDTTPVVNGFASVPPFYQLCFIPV

[2] = target: T1, Rac GTPase-activating protein 1 (Homo sapiens, UniProt Q9H0H5); assay: MgcRacGAP GTPase-activating activity inhibitors, confirmation, biochemical, ADP Hunter fluorescence, primary and confirmatory (AID 624330); assay type: functional
T1 sequence (Q9H0H5 whole entry): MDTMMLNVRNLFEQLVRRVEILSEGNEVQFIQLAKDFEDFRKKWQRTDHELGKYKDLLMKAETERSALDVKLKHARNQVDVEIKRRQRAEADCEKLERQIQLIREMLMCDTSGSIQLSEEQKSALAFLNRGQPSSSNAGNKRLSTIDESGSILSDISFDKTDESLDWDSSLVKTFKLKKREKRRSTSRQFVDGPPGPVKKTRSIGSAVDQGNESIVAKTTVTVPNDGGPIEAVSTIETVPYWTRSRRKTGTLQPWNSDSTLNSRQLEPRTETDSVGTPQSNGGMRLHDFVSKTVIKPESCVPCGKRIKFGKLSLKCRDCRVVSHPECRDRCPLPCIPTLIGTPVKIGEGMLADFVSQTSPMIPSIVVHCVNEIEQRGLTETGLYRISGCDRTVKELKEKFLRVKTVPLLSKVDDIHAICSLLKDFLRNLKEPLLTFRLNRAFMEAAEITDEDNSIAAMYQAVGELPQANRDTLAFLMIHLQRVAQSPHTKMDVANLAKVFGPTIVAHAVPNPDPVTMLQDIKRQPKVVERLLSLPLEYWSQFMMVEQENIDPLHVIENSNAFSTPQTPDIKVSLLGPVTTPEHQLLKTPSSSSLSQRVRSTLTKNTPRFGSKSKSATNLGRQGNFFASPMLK

[3] = P. falciparum Dd2 growth inhibitors, dose response, SYBR Green, cherry-picked samples (AID 1159567); assay type: functional, cell-based
Cytochrome P450 1A2 = target: T2, Cytochrome P450 1A2 (Homo sapiens, UniProt P05177);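 further: PubChem cytochrome P450 panel assay, CYP1A2 panel member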
T2 sequence (P05177 whole entry): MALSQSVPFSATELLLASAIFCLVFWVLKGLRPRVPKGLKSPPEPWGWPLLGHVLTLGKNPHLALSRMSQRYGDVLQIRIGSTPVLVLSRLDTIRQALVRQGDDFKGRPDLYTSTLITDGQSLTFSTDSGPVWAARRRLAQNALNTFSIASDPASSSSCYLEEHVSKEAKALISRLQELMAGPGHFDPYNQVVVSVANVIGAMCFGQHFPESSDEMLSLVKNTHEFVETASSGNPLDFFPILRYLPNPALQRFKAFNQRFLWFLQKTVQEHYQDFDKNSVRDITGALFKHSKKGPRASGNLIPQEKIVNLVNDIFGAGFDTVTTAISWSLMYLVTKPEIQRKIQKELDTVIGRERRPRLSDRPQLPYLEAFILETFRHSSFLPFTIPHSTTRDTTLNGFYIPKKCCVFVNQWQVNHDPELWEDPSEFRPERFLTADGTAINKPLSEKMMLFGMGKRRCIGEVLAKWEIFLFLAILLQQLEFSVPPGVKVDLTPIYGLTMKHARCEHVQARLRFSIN

[4] = HEp-2 cell cytotoxicity, dose response, cytotoxicity control for RSV inhibitor project, HTS (AID 2410); assay type: functional; conditions: human respiratory syncytial virus
[5] = inhibitors of intracellular T. cruzi replication, confirmation, NIH3T3 host cells, beta-gal luminescence (AID 2044); assay type: functional, cell-based;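 further: intracellular parasites grown in NIH/3T3 mouse fibroblasts as host cells; luminescent beta-galactosidase reporter signal from transgenic T. cruzi replicating inside host cells; inhibitors lower the luminescence signal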
[6] = target: T3, Corticotropin-releasing factor receptor 2/Corticotropin-releasing factor-binding protein (Homo sapiens, UniProt P24387+Q13324); assay: activators of CRF receptor 2 with binding protein – uHTS hits, confirmation (AID 602473); assay type: functional; conditions: read-out: EC50_Mean
T3 sequence (Q13324 whole entry): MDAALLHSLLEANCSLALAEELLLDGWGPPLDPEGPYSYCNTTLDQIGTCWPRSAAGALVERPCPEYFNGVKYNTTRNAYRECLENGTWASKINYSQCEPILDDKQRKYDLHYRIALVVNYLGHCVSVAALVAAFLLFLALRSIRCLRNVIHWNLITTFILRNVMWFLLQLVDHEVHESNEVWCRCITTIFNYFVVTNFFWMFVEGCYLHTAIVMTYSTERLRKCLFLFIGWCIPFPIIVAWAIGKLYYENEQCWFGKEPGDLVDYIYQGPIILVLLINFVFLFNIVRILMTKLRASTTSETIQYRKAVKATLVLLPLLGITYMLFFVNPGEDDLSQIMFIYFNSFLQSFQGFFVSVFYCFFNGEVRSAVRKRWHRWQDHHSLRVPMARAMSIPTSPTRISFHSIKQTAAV
T3 sequence (P24387 whole entry): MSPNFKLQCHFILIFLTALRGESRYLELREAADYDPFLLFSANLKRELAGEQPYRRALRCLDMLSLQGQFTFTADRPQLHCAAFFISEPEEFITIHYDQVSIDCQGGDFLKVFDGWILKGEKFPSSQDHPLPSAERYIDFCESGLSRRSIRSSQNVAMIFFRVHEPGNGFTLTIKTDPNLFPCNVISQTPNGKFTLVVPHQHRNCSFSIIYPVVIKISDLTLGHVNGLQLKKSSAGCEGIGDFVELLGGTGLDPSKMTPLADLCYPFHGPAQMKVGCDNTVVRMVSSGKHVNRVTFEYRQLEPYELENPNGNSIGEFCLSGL

[7] = cytotoxicity toward NIH3T3 fibroblasts, dose response, counter-screen, cell-based, ATP luminescence, mouse fibroblasts (AID 2010); assay type: functional;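 further: cells exposed to compound for about 90 hours before reading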
[8] = target: T3, Corticotropin-releasing factor receptor 2/Corticotropin-releasing factor-binding protein; assay: Dose Response confirmation of uHTS hits for small molecule antagonists of the CRF-binding protein and CRF-R2 receptor complex.; assay type: functional; conditions: read-out: IC50_Mean
Cytochrome P450 2C19 = Cytochrome P450 2C19 (Homo sapiens, UniProt P33261); assay: Cytochrome panel assay with activity outcomes. Panel member name: p450-cyp2c19 Compounds with AC50 equal or less than 10 uM are considered active; assay type: functional
Cytochrome P450 2C19, sequence (P33261 whole entry): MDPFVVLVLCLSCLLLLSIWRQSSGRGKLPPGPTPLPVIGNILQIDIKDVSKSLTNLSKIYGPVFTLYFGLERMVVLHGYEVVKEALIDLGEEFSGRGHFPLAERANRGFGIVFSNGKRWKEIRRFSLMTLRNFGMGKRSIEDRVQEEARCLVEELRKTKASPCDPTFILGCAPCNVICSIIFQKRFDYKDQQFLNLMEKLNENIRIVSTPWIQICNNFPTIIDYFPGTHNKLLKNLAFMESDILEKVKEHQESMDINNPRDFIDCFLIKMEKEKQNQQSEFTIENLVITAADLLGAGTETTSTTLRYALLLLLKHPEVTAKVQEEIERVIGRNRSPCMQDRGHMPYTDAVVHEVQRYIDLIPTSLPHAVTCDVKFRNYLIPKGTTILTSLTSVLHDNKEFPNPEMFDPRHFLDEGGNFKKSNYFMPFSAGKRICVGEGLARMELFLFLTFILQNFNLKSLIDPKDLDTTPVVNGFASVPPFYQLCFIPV

[9] = Shn3 3'UTR reporter inhibitors, dose response, cell-based, Clone20 osteoblasts, firefly luciferase, cherry-picked (AID 624132); assay type: functional;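 further: firefly luciferase luminescence from reporter carrying the Shn3 3'UTR in osteoblasts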
Cytochrome P450 3A4 = Cytochrome P450 3A4 (Homo sapiens, UniProt P08684);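 further: CYP3A4 tested as one member of a cytochrome P450 panel screen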
Cytochrome P450 3A4, sequence (P08684 whole entry): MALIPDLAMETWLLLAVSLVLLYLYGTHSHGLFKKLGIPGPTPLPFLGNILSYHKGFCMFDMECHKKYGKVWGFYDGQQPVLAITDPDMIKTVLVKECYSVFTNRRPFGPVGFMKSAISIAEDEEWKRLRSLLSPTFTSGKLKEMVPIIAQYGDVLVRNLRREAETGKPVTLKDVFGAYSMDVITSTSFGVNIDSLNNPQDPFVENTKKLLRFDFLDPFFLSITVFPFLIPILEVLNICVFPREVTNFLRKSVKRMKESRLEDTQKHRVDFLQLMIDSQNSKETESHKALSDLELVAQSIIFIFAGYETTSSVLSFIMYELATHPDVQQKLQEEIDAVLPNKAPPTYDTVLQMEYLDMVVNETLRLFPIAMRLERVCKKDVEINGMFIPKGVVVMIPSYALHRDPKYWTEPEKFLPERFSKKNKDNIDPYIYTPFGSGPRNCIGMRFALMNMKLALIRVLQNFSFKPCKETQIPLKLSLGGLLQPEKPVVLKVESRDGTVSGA

Cytochrome P450 2D6 = Cytochrome P450 2D6 (Homo sapiens, UniProt P10635);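 further: CYP2D6 member of a cytochrome P450 panel assay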
Cytochrome P450 2D6, sequence (P10635 whole entry): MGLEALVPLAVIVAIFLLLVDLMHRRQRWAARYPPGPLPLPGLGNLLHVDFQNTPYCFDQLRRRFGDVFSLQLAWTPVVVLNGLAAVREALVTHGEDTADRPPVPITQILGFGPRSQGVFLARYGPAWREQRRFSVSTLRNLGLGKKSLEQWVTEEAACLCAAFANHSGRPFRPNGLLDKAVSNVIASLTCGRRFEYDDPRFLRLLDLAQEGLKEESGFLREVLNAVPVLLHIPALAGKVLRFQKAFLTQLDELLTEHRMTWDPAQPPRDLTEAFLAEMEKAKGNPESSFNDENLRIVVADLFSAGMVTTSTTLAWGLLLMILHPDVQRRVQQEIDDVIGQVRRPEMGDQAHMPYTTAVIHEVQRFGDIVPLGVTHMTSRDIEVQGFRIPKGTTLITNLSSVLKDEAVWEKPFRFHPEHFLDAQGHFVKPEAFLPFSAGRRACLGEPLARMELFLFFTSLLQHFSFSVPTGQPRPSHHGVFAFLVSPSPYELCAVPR

COc1ccc(N2C(=O)CC(Sc3nc(C)cc(C)c3C#N)C2=O)cc1 (centres undefined)
EC50 (H4): 25.4 µM (active) | EC50 [1]: 14.6 µM (active)

CCCCNC(=O)CSc1nc2ccccc2c(=O)n1CCNC(C)=O
AC50 (Cytochrome P450 2C9): 22.4 µM (inconclusive)

c1cc(CN2CCN(C3CCCCCC3)CC2)ccn1
IC50 [2]: 92 µM (active)

O=C(C1CCCC1)N1CC(=O)N2[C@H](C1)[C@@H](c1ccc(C#CCc3ccccc3)cc1)[C@@H]2CO
AC50 [3]: 4.51 µM (active)

Cc1cc(C=C(C#N)C#N)c(C)n1-c1ccccc1
AC50 (Cytochrome P450 2C9): 1.12 µM (inconclusive) | AC50 (Cytochrome P450 1A2): 2.24 µM (inconclusive)

O=C(Nc1nc(-c2ccc(Cl)cc2)cs1)NC1CCCCC1
CC50 [4]: 20.3 µM (active)

O=C(Nc1ccccc1)c1sccc1Oc1ccc([N+](=O)[O-])cc1F
EC50 [5]: 1.42 µM (active) | EC50 [6]: > 53 µM (inactive) | EC50 [7]: > 60 µM (not active) | IC50 [8]: > 47.1 µM (inactive)

CCN1CCN(CCOc2cccc(Cl)c2Cl)CC1
EC50 [5]: 0.151 µM (active) | IC50 [2]: 70.4 µM (active) | EC50 [7]: > 60 µM (not active)

COCC(=O)Nc1ccc2c(c1)C(=O)N(C)C[C@H](OC)[C@H](C)CN(Cc1cccc(F)c1)[C@@H](C)CO2
AC50 [3]: 5.34 µM (active)

O=S(=O)(c1ccccc1)N1CCC[C@@]2(CCN(c3ccccc3)C2)C1
AC50 (Cytochrome P450 2C9): 2.51 µM (inconclusive)

COC(C(=O)Nc1ccc(F)cc1)c1ccccc1 (centres undefined)
EC50 [6]: > 53 µM (inactive) | IC50 [8]: > 47.1 µM (inactive)

O=C(O)Cn1cc(/C=C2\C(=O)NC(=O)N(c3ccc(Cl)cc3)C2=O)c2ccccc21
IC50 [2]: 255 µM (active)

Cc1cc(OCCCN2CCN(Cc3ccccc3)CC2)ccc1[N+](=O)[O-]
EC50 [5]: 0.156 µM (active) | IC50 [2]: 62 µM (active) | EC50 [7]: > 60 µM (inconclusive)

N#C/C(=C(/O)COC(=O)COc1cccc(Br)c1)c1nc2ccccc2[nH]1
EC50 [6]: > 53 µM (inactive) | IC50 [8]: > 47.1 µM (inactive)

CCC/C(=N\NC(=O)C1CC1)c1ccccc1
EC50 [6]: > 53 µM (inactive) | IC50 [8]: > 47.1 µM (inactive)

Cc1cc(C)c(S(=O)(=O)n2ccc3ccccc32)c(C)c1
EC50 [6]: > 53 µM (inactive) | IC50 [8]: > 47.1 µM (inactive)

O=C(C(c1ccccc1)c1ccccc1)N1CCN(CCN2C(=O)c3cccc4cccc(c34)C2=O)CC1
EC50 [6]: > 53 µM (inactive) | IC50 [8]: > 47.1 µM (inactive)

CC(=O)Nc1ccc2[nH]c(C3CCCCC3)nc2c1
AC50 (Cytochrome P450 2C19): inconclusive | AC50 (Cytochrome P450 2C9): 17.8 µM (inconclusive)

COc1ccc(CN(C(=O)CSc2nnc(-c3ccc(F)cc3)o2)c2ccc(F)cc2)cc1
AC50 [9]: 43.4 µM (active)

Cc1ccnc(NC(=O)c2ccc(NC(=O)c3ccco3)cc2)c1
EC50 (H4): 11.9 µM (active) | EC50 [1]: 1.37 µM (active)

COC(=O)c1sccc1-c1ccc(C(N)=O)o1
CC50 [4]: 44 µM (active)

Cc1nc(SCC(=O)NCCc2ccccc2)c2oc3ccccc3c2n1
AC50 (Cytochrome P450 3A4): 39.8 µM (inconclusive) | AC50 (Cytochrome P450 2C9): 0.398 µM (inconclusive) | AC50 (Cytochrome P450 1A2): 0.562 µM (inconclusive)

c1cncc(-c2nn3c(Cn4nnc5ccccc54)nnc3s2)c1
CC50 [4]: > 50 µM (active)

Cc1ccc(C2(C)NC(=O)N(CC(=O)Nc3ccc(-c4nc5ccc(C)cc5s4)cc3)C2=O)cc1 (centres undefined)
CC50 [4]: 41.5 µM (active)

COc1cccc(CN2CCN(Cc3cc(OC)c(OC)c(OC)c3)CC2)c1OC
IC50 [2]: 74.8 µM (active)

COc1ccc(-c2nc3cnc(OC)nc3n(Cc3cccc(OC)c3)c2=O)cc1
AC50 (Cytochrome P450 2C9): 3.16 µM (inconclusive)

C=CC[C@@H]1C=C[C@H](O/N=C(\C)CCN2CCc3nc(-c4ccccc4)c(-c4ccccc4)cc3C2)[C@H](CO)O1
AC50 (Cytochrome P450 2C9): 0.0794 µM (inconclusive)

Cc1c(N2C(=O)/C(=C3/C(=O)N(C)c4ccccc43)SC2=S)c(=O)n(-c2ccccc2)n1C
AC50 (Cytochrome P450 3A4): 15.8 µM (inconclusive) | AC50 (Cytochrome P450 2C9): 12.6 µM (inconclusive) | AC50 (Cytochrome P450 1A2): 25.1 µM (inconclusive) | AC50 (Cytochrome P450 2D6): 7.94 µM (inconclusive)

Cc1nc2ccccn2c1C(=O)C1=C(O)C(=O)N(CCN2CCOCC2)C1c1cccnc1 (centres undefined)
AC50 (Cytochrome P450 2C9): 17.8 µM (inconclusive)

COc1ccc(-n2c(=O)c(C)nc3cnc(Oc4cccc(Cl)c4)nc32)cc1
AC50 (Cytochrome P450 3A4): 3.16 µM (inconclusive) | AC50 (Cytochrome P450 2C19; read-out: AC50): 39.8 µM (inconclusive) | AC50 (Cytochrome P450 2C9): 25.1 µM (inconclusive) | AC50 (Cytochrome P450 2D6): 25.1 µM (inconclusive)

CCC(C)C1N=C(c2ccccc2)c2cc(Cl)ccc2N(CC(=O)NCc2ccco2)C1=O (centres undefined)
EC50 [6]: > 53 µM (inactive) | IC50 [8]: > 47.1 µM (inactive)

c1ccc(CNC2=NN=C(c3ccccc3)CS2)cc1
EC50 (H4): 24.2 µM (active) | EC50 [1]: 0.293 µM (active)

CCn1c(=O)n(CC)c2cc(N3CCCC3)c(NC(=O)c3ccccc3)cc21
IC50 [2]: 91 µM (active)

Cc1ccc(C(=O)NCC2CCCO2)cc1N1CCCC1=O (centres undefined)
AC50 (Cytochrome P450 2C19): inconclusive | AC50 (Cytochrome P450 2C9): 2.82 µM (inconclusive)

CC(C)(C)[S@@+]([O-])N1Cc2cc(C(=O)N[C@@H]3CCN(Cc4ccccc4)C3)nc(-c3cccc(-c4ccncc4)c3)c2[C@H]1CCO
AC50 [3]: 6.63 µM (active)

O=C(c1ccc(NS(=O)(=O)c2cccc([N+](=O)[O-])c2)cc1)N1CCCCCC1
EC50 [6]: > 53 µM (inactive) | IC50 [8]: > 47.1 µM (inactive)

CCc1cc(-c2[nH]nc(CCC(=O)O)c2-c2nc3ccccc3n2C)c(O)cc1O
IC50 [2]: 122 µM (active)

COc1ccc(S(=O)(=O)N2CCC(N3CCN(c4ccccc4OC)CC3)CC2)cc1
IC50 [2]: 121 µM (active)

COc1ccc(Oc2ncc3nc(-c4cccc(C#N)c4)c(=O)n(Cc4cccc(OC)c4)c3n2)cc1
AC50 (Cytochrome P450 2C9): 2.51 µM (inconclusive)

C=CCOc1nc2c(c(=O)n(Cc3ccc(Cl)c(Cl)c3)c(=O)n2C)n1C
EC50 [6]: > 53 µM (inactive) | IC50 [8]: > 47.1 µM (inactive)
